Patent US20250221410A1, “SUBSTITUTED 2-C-AZINES AND SALTS THEREOF, AND USE THEREOF AS HERBICIDAL ACTIVE SUBSTANCES” (BAYER AKTIENGESELLSCHAFT, priority 2022, published 2025)

How the values were obtained:
Assay type in all cases: in vivo
LOLRI: Lolium rigidum [1] = assay: Pre-emergence herbicide efficacy at 1280 g/ha, LOLRI; conditions: visual scoring after about 3 weeks vs untreated controls
In short: (§1)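 Pre-emergence pot test in sandy loam: WP or EC formulations sprayed onto covering soil after sowing, as aqueous suspension/emulsion with 0.5% additive at 600 L/ha water. Plants grown in greenhouse; after about 3 weeks, efficacy scored visually as % versus untreated controls (100% = dead, 0% = like control).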

POAAN: Poa annua = assay: Post-emergence herbicidal efficacy at 1280 g/ha, POAAN; conditions: visual rating about 3 weeks after treatment vs untreated controls
In short: (§2)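 Weeds grown in sandy loam in the greenhouse were sprayed at the one-leaf stage, 2 to 3 weeks after sowing, with WP or EC formulations in water plus 0.5% additive at 600 L/ha. Damage was scored visually about 3 weeks later against untreated controls (0% = like control, 100% = plants dead).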

[2] = test system: AMARE: Amaranthus retroflexus; assay: Post-emergence herbicidal efficacy at 1280 g/ha, AMARE; conditions: rated visually after about 3 weeks vs untreated controls, 100% = plants have died, 0% = like control plants
In short: as §2

POLCO = assay: Pre-emergence herbicide efficacy at 80 g/ha, POLCO; conditions: Polygonum convolvulus, scored visually after about 3 weeks
In short: (§3)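 Seeds sown in pots and covered with soil received WP or EC formulations sprayed onto the soil surface at 80 g/ha, 600 l/ha water, with 0.5% additive. After about 3 weeks in greenhouse, efficacy was visually scored as percent versus untreated controls (100% = plants dead, 0% = like control).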

[3] = test system: ALOMY: Alopecurus myosuroides; assay: Post-emergence herbicidal efficacy at 1280 g/ha, ALOMY; conditions: rated visually after about 3 weeks vs untreated controls, 100% = plants have died, 0% = like control plants
Protocol: (§4) Seeds of mono- and dicotyledonous weed plants were placed in plastic pots in sandy loam soil (doubly sown with in each case one species of mono- or dicotyledonous weed plants per pot), covered with soil and cultivated in a greenhouse under controlled growth conditions. 2 to 3 weeks after sowing, the test plants were treated at the one-leaf stage. The compounds of the invention, formulated in the form of wettable powders (WP) or as emulsion concentrates (EC), were applied to the green parts of the plants as aqueous suspension or emulsion with addition of 0.5% additive at a water application rate equivalent to 600 litres per hectare. After the test plants had been kept in the greenhouse under optimum growth conditions for about 3 weeks, the activity of the preparations was rated visually in comparison to untreated controls. For example, 100% activity=the plants have died, 0% activity=like control plants. Tables A1 to A12 below show the effects of selected compounds of the general formula (I) according to Table 1 on various harmful plants and at an application rate corresponding to 1280 g/ha, which were obtained by the trial procedure specified above.

VERPE: Veronica persica [4] = assay: Pre-emergence herbicide efficacy at 1280 g/ha, VERPE; conditions: visual scoring vs untreated controls
In short: as §1

KCHSC: Kochia scoparia [5] = assay: Pre-emergence herbicide efficacy at 1280 g/ha, KCHSC; conditions: visual scoring after about 3 weeks vs untreated controls
In short: as §1

[6] = test system: MATIN: Matricaria inodora; assay: Pre-emergence herbicide efficacy at 80 g/ha, MATIN; conditions: scored visually after about 3 weeks
In short: as §3

[7] = test system: MATIN: Matricaria inodora; assay: Pre-emergence herbicide efficacy at 1280 g/ha, MATIN; conditions: visual scoring after about 3 weeks vs untreated controls
In short: as §1

VERPE: Veronica persica [8] = assay: Pre-emergence herbicide efficacy at 80 g/ha, VERPE; conditions: scored visually after about 3 weeks
In short: as §3

VIOTR: Viola tricolor = assay: Pre-emergence herbicide efficacy at 80 g/ha, VIOTR; conditions: scored visually after about 3 weeks
Description: (§5) Seeds of monocotyledonous and dicotyledonous weed plants and crop plants were placed in plastic or organic planting pots and covered with soil. The compounds of the invention, formulated in the form of wettable powders (WP) or as emulsion concentrates (EC), were then applied to the surface of the covering soil as aqueous suspension or emulsion with addition of 0.5% additive at a water application rate equivalent to 600 l/ha. After the treatment, the pots were placed in a greenhouse and kept under good growth conditions for the test plants. After about 3 weeks, the efficacy of the preparations was scored visually in comparison with untreated controls as percentages. For example, 100% activity=the plants have died, 0% activity=like control plants. Tables D1 to D12 below show the effects of selected compounds of the general formula (I) according to Table 1 on various harmful plants and an application rate corresponding to 80 g/ha, which were obtained by the experimental procedure mentioned above.

[9] = test system: ALOMY: Alopecurus myosuroides; assay: Pre-emergence herbicide efficacy at 80 g/ha, ALOMY; conditions: scored visually after about 3 weeks
Description: as §5

[10] = test system: DIGSA: Digitaria sanguinalis; assay: Pre-emergence herbicide efficacy at 80 g/ha, DIGSA; conditions: scored visually after about 3 weeks
In short: as §3

LOLRI: Lolium rigidum [11] = assay: Post-emergence herbicidal efficacy at 1280 g/ha, LOLRI; conditions: visual rating about 3 weeks after treatment vs untreated controls
Protocol: as §4

KCHSC: Kochia scoparia [12] = assay: Post-emergence herbicidal efficacy at 80 g/ha, KCHSC; conditions: visual rating about 3 weeks after treatment vs untreated controls
Protocol: (§6) Seeds of monocotyledonous and dicotyledonous weeds and crop plants were placed in sandy loam in plastic or organic planting pots, covered with soil and cultivated in a greenhouse under controlled growth conditions. 2 to 3 weeks after sowing, the test plants were treated at the one-leaf stage. The compounds of the invention, formulated in the form of wettable powders (WP) or as emulsion concentrates (EC), were then sprayed onto the green parts of the plants as aqueous suspension or emulsion with addition of 0.5% additive at a water application rate of 600 l/ha (converted). After the test plants had been kept in the greenhouse under optimum growth conditions for about 3 weeks, the activity of the preparations was rated visually in comparison to untreated controls. For example, 100% activity=the plants have died, 0% activity=like control plants. Tables B1 to B10 below show the effects of selected compounds of the general formula (I) according to Table 1 on various harmful plants and an application rate corresponding to 80 g/ha, which were obtained by the experimental procedure mentioned above.

[13] = test system: MATIN: Matricaria inodora; assay: Post-emergence herbicidal efficacy at 1280 g/ha, MATIN; conditions: visual rating about 3 weeks after treatment vs untreated controls
Protocol: as §4

[14] = test system: ABUTH: Abutilon theophrasti; assay: Post-emergence herbicidal efficacy at 80 g/ha, ABUTH; conditions: rated visually after about 3 weeks vs untreated controls, 100% = plants have died, 0% = like control plants
Protocol: as §6

Fc1cnc(Oc2cccc(Br)c2Cc2ncc(Cl)cn2)nc1 [Example 1-54]
Pre-emergence efficacy against LOLRI (LOLRI: Lolium rigidum [1]): 100% | Post-emergence efficacy against POAAN (POAAN: Poa annua): 100% | Post-emergence efficacy at 1280 g/ha against AMARE in % [2]: 100% | Pre-emergence efficacy against POLCO in % (POLCO): 80% | Post-emergence efficacy at 1280 g/ha against ALOMY in % [3]: 90% | Pre-emergence efficacy against VERPE in % (VERPE: Veronica persica [4]): 100% | Pre-emergence efficacy against KCHSC (KCHSC: Kochia scoparia [5]): 100% | Pre-emergence efficacy against MATIN in % [6]: 90% | Pre-emergence efficacy against MATIN [7]: 100% | Pre-emergence efficacy against VERPE in % (VERPE: Veronica persica [8]): 90% | Pre-emergence efficacy against VIOTR in % (VIOTR: Viola tricolor): 100% | Pre-emergence efficacy against ALOMY in % [9]: 80% | Pre-emergence efficacy against DIGSA in % [10]: 100%

Clc1cnc(Cc2c(Cl)cccc2Oc2ncc(Cl)cn2)nc1 [Example 1-56]
Pre-emergence efficacy against LOLRI (LOLRI: Lolium rigidum [1]): 100% | Post-emergence efficacy against POAAN (POAAN: Poa annua): 90% | Post-emergence efficacy at 1280 g/ha against AMARE in % [2]: 90% | Pre-emergence efficacy against POLCO in % (POLCO): 90% | Pre-emergence efficacy against VERPE in % (VERPE: Veronica persica [4]): 100% | Pre-emergence efficacy against KCHSC (KCHSC: Kochia scoparia [5]): 100% | Pre-emergence efficacy against MATIN in % [6]: 100% | Pre-emergence efficacy against MATIN [7]: 100% | Pre-emergence efficacy against VERPE in % (VERPE: Veronica persica [8]): 90% | Post-emergence efficacy against LOLRI (LOLRI: Lolium rigidum [11]): 90% | Pre-emergence efficacy against VIOTR in % (VIOTR: Viola tricolor): 100% | Pre-emergence efficacy against DIGSA in % [10]: 100% | Post-emergence efficacy against KCHSC (KCHSC: Kochia scoparia [12]): 80%

N#Cc1cccc(Oc2ncc(F)cn2)c1Cc1ncc(Cl)cn1 [Example 1-59]
Pre-emergence efficacy against LOLRI (LOLRI: Lolium rigidum [1]): 100% | Post-emergence efficacy against POAAN (POAAN: Poa annua): 100% | Post-emergence efficacy at 1280 g/ha against AMARE in % [2]: 100% | Pre-emergence efficacy against POLCO in % (POLCO): 90% | Pre-emergence efficacy against VERPE in % (VERPE: Veronica persica [4]): 100% | Post-emergence efficacy against MATIN [13]: 100% | Pre-emergence efficacy against KCHSC (KCHSC: Kochia scoparia [5]): 100% | Pre-emergence efficacy against MATIN in % [6]: 100% | Pre-emergence efficacy against MATIN [7]: 100% | Pre-emergence efficacy against VERPE in % (VERPE: Veronica persica [8]): 90% | Pre-emergence efficacy against VIOTR in % (VIOTR: Viola tricolor): 100% | Pre-emergence efficacy against ALOMY in % [9]: 80% | Pre-emergence efficacy against DIGSA in % [10]: 100% | Post-emergence efficacy against KCHSC (KCHSC: Kochia scoparia [12]): 90%

FC(F)c1cc(-c2ccccc2Cc2ncc(Cl)cn2)on1 [Example 1-133]
Pre-emergence efficacy against LOLRI (LOLRI: Lolium rigidum [1]): 90% | Post-emergence efficacy at 80 g/ha against ABUTH in % [14]: 80% | Post-emergence efficacy against POAAN (POAAN: Poa annua): 100% | Post-emergence efficacy at 1280 g/ha against AMARE in % [2]: 100% | Pre-emergence efficacy against POLCO in % (POLCO): 80% | Post-emergence efficacy at 1280 g/ha against ALOMY in % [3]: 90% | Pre-emergence efficacy against VERPE in % (VERPE: Veronica persica [4]): 100% | Pre-emergence efficacy against KCHSC (KCHSC: Kochia scoparia [5]): 100% | Pre-emergence efficacy against MATIN in % [6]: 80% | Pre-emergence efficacy against MATIN [7]: 100% | Pre-emergence efficacy against VERPE in % (VERPE: Veronica persica [8]): 90% | Post-emergence efficacy against LOLRI (LOLRI: Lolium rigidum [11]): 100% | Pre-emergence efficacy against VIOTR in % (VIOTR: Viola tricolor): 80% | Pre-emergence efficacy against DIGSA in % [10]: 100% | Post-emergence efficacy against KCHSC (KCHSC: Kochia scoparia [12]): 100%
